Test results reported in patent publication US10350168B2, “Dermal delivery compositions comprising active agent-calcium phosphate particle complexes and methods of using the same” (Laboratory Skin Care, Inc., priority 2009, dated 2019).
Several values for one entry are separate records, joined by “and”; a condition that tells them apart may be missing. Equal values may be shown once. Blank lines part the entries; values can stand above or below the compound they belong to.

What was measured:
[1] = Tape-stripping analysis of topical application of active-calcium phosphate complexes; format: in vivo; conditions: human forearm, ten tape strips
Procedure: The purpose of this study was to detect the distribution of actives in the stratum corneum following topical application of the active-calcium phosphate particles • Method: The distribution of STAY C50 within the stratum corneum was assessed by serial tape stripping of the skin to which a STAY C50-calcium phosphate particle formulation was applied. An application site on the forearm of a human subject was marked and 200 μl of the formulation spread by spatula. The site was allowed to dry for 10 minutes and then followed by ten pre-weighed tape stripping using strips of (3 in^2) applied to the application site. STAY C50 was extracted from the tape strips by sonicating the samples in water for 30 minutes and analyzing the samples by HPLC. […] An application site on the forearm of a human subject was marked and 200 μl of the formulation spread by spatula. The site was allowed to dry for 10 minutes and then followed by ten pre-weighed tape stripping using strips of (3 in^2) applied to the application site. Lysozyme was extracted from the tape strips by sonicating the samples in water for 30 minutes and analyzing the samples by HPLC. Lysozyme was detected to a depth of 6 tape strips (FIG. 10). 5. Controlled Slow Release of Active Agents by Franz Cell • Purpose: The purpose of this study was to detect riboflavin from riboflavin attached to calcium phosphate particles. […]

[2] = pH dependent release of lysozyme from lysozyme calcium phosphate complexes; format: physicochemical; conditions: flow 1 mL/hr, 8 hours
Procedure: In the stratum corneum, the pH ranges from approximately 4.3 to 5.0 with pH […] with stratum corneum depth. To study calcium phosphate particle release active agent at conditions analogous to skin, two lysozyme calcium phosphate complexes were exposed to buffers of ph 4.8 (0.5 M sodium acetate) and 7.0 (10 mM Bis Tris) for 8 hours. The buffers flowed through the samples at a rate of 1 mL/hr and were collected hourly and analyzed for lysozyme release by monitoring the peak at 280 nm by UV spectrometer. An equivalent mass of lysozyme Calcium phosphate particles complex was vortexed in pH 4.8 buffer to estimate the total available lysozyme in the sample.

[3] = Lysozyme binding to calcium phosphate particles (UV 280 nm); format: physicochemical; conditions: pH 6.83
Procedure: • Calcium phosphate particles • Lysozyme, MP biomedicals LLC. Product No. ICN10083405 • Phosphoric acid, Fisher Scientific, Product No. A260500 Methods: • i. 364.7 mg of Lysozyme as dissolved in 18.01 ml of water (20.25 mg/ml). • ii. 0.8 g of calcium phosphate particles were mixed with 4 ml of water, and the pH of the suspension was adjusted to neutral with diluted phosphoric acid. • iii. 4 ml of Lysozyme solution (20.25 mg/ml) was added to the suspension of calcium phosphate particles to achieve a final concentration of 10.124 mg/ml, and a final volume of 8 ml. The final pH was measured. • iv. The suspension was mixed for 30 min, and centrifuged at 2000×g for 10 min in a bench top centrifuge. • v. The absorbance of supernatant was measured at 280 nm (the detection wavelength for Lysozyme) by UV spectrophotometer. • vi. […]

[4] = Influence of pH on binding of Salicylic acid to calcium phosphate particles (UV 297 nm); format: physicochemical
Procedure: • Calcium phosphate particles • Salicylic acid, Fisher Scientific, Part No. A277-500 Methods: • i. 23.2 mg of Salicylic acid was dissolved in 1 ml of ethanol. • ii. 4 g of calcium phosphate particles were suspended in 39.8 ml of water and the pH was adjusted close to the targeted pH with HCl. • iii. 0.2 ml of Salicylic acid solution (23.2 mg/ml) was mixed in the suspension of calcium phosphate particles. • iv. The pH was adjusted to each of the target pH values (11.36, 8.34, 7.47, 7.07, 5.99) with HCl. • v. At each pH, a 4.8 ml sample was taken from the suspension. All the samples were centrifuged separately at 2000×g for 10 min. • vi. The absorbance of supernatant was measured at 297 nm (the detection wavelength for Salicylic acid) by UV spectrophotometer. • vii. […]

[5] = Optimum pH for producing active agent-calcium phosphate complexes; format: physicochemical
Excerpt: In the following tables, the specific solvent systems are examples of solvent systems that may be used.

[6] = Franz cell transdermal delivery through pig skin; format: in vitro ADME; conditions: for penetration through skin (riboflavin metabolite in receptor fluid): 8 and 16 hours
Procedure: Controlled Slow Release of Active Agents by Franz Cell • Purpose: The purpose of this study was to detect riboflavin from riboflavin attached to calcium phosphate particles. Methods: • Circular 6 cm^2 discs of full-thickness pig skin were cut from a larger abdominal specimen. Fat was removed from the dermis-side by scissors and the skin was stored at −20° C. until use. The skin was affixed between the two compartments of the glass diffusion cell (Laboratory Glass Apparatus, Model #LG-1084-LPCT). This allowed an exposed skin area of 5 cm^2 over a receptor compartment volume of 4.5 ml. The diffusion cell was maintained at 37° C.
Penetration Conditions • Topical application intervals were 8 and 16 hrs. The cells were covered with parafilm and shielded from light by aluminum wrap. A receptor fluid of phosphate buffered saline (PBS) was spun at 60 rpm.
Applied Formulations • Riboflavin monophosphate-calcium phosphate particles were prepared to deliver 0.35-1.15 mg riboflavin (20-38% suspensions). • Riboflavin monophosphate in PBS was prepared at 1.5 mg/mL to deliver 0.3-0.45 mg riboflavin. • Formulations were applied by pipette in volumes of 50-100 μl. Riboflavin-calcium phosphate complex applications were allowed to air dry and then equal volume of 0.5 M sodium acetate buffer was pipetted onto the application site. […]
Sample Collection • The skin surface, while still retained in the diffusion cell, was washed twice with 1 mL PBS each time. The skin was removed from diffusion cell and dried and analyzed.
Sample Analysis • Washes and Receptor fluid: The approximate volume of the fluids was determined. […] The supernatant was then removed and analyzed by UV spectrometer. If the UV absorbance was saturated (over >2.0), the samples were diluted with water. The UV absorbance value at 370 nm was recorded. • Skin: The skin was minced and mixed with 5 ml of 10% trichloracetic acid solution. […] If the UV absorbance was saturated (over >2.0), samples were diluted with water. The maximum UV absorbance value at 370 nm was recorded.

[7] = Stability (activity) of ascorbic acid at 50° C. with and without calcium phosphate particles; format: physicochemical; conditions: for activity of ascorbic acid, 2 um: bound to 2 μm calcium phosphate particles; for activity of ascorbic acid, Control: without calcium phosphate particles
Procedure: 11.9 mg of ascorbic acid was dissolved in 30 ml of water. 2 g of 2 μm calcium phosphate particles were suspended in 19.5 ml of water and the pH was adjusted to pH 7.14 with HCl. 0.5 ml of ascorbic acid solution (0.40 mg/ml) was mixed in the suspension of calcium phosphate particles, which reduced the pH to 7.05. The suspension (pH 7.05) of calcium phosphate particles including 10 μg/ml of ascorbic acid was incubated at 50° C. for 0.5 to 5 hours. The heat-denaturation of ascorbic acid was terminated by cooling the suspension in an ice bath for 15 minutes. In order to release bound ascorbic acid from calcium phosphate particles to measure the stabilization effect, the pH of each suspension was adjusted to pH 5 with HCl and centrifuged at 3,000 rpm for 10 minutes. The supernatant obtained was measured at 265 nm. As a control, a 10 μg/ml of ascorbic acid solution was also incubated and measured by the same procedures without calcium phosphate particles. The activity of ascorbic acid was calculated by the following formula: The activity of ascorbic acid (%)=(A265nm of the supernatant after incubation/A265nm of the ascorbic acid before incubation)×100 The same procedures were repeated with 10 μm calcium phosphate particles. b. Results

[8] = Argireline binding to calcium phosphate particles with or without sodium lauryl sulfate pretreatment; format: physicochemical
Procedure: • Argireline to calcium phosphate particles was pretreated with sodium lauryl sulfate Materials: • Calcium phosphate particles • Argireline, (Acetyl Hexapeptide-8), Lipotec S.A. • Sodium lauryl sulfate (SLS), Colonial Chemical, Inc. Methods: • i. Argireline was dissolved in water as a 10 mg/ml solution. • ii. Calcium phosphate particles were mixed with 10 ml of 0.1% SLS for 5 min. […] The pellet was re-suspended in 20 ml water, centrifuged at 2000×g for 10 min, and the washing supernatant was discarded. The washing step was repeated twice. The water contained in the pellet was determined. The final pellet was used in the binding study. • iii. Calcium phosphate particles (SLS treated or no SLS treatment) were mixed with water. HCl (or NaOH) was added to adjust the pH of Calcium phosphate particles suspension to targeted pH including neutral and pH˜10. • iv. Argireline stock at 10 mg/ml was added to each binding suspensions to be a final concentration of 0.5 mg/ml. After the suspension was mixed for 30 min, the final pH was measured. • v. The binding suspensions were centrifuged at 2000×g for 10 min in the bench top centrifuge. The supernatants were analyzed with Refractive Index detector connected to the Shimadzu HPLC 20A system to quantify the free Argireline in the solution. A size-exclusion HPLC method was developed to quantify Argireline in the supernatants of the binding mixtures. […] The mobile phase was 100% water, and eluted at a rate of 1 ml/min. The eluent was monitored at 205 nm or by a refractive index detector (Shimadzu, Model No. RID-10A). Argireline was observed as a major peak in the chromatogram with retention time of about 14 min. The quantification of Argireline was achieved by external standard calibration. • vi. The Argireline bound was then calculated by subtracting the amount of Argireline detected in the supernatant from the total initial amount in the binding suspension.

[9] = Influence of solvent on binding of Adapalene to calcium phosphate particles (UV 319 nm); format: physicochemical
Procedure: (§1) • Calcium phosphate particles • Adapalene, Sekhsaria Chemicals Limited, India • DMSO, Fisher Scientific, Product No. D159-4 • Ethanol, Fisher Scientific, Product No. AC61511-0010 Methods: • i. […] The suspensions were mixed for 30 min, and centrifuged at 2000×g for 10 min in a bench top centrifuge. • iv. The absorbance of supernatants were measured at 319 nm (the detection wavelength for Adapalene) by UV spectrophotometer. • v. […]

[10] = Adapalene saturated solutions in ethanol and DMSO; format: physicochemical
Procedure: as §1

[11] = Sodium Tocopheryl Phosphate binding to and release from calcium phosphate particles (UV 286 nm); format: physicochemical
Procedure: • Calcium phosphate particles • Sodium Tocopheryl Phosphate (TPNa), Showa Denko KK • Ethanol, Fisher Scientific, Product No. AC615090020 Methods: • i. 20 mg of TPNa was dissolved in 40 ml of water by gently mixing (0.5 mg/ml). • ii. 3 g of calcium phosphate particles was mixed with 30 ml of TPNa solution at 0.5 mg/ml, and mixed for 30 min. • iii. The binding suspension was centrifuged at 2000×g for 10 min. The supernatant was transferred to new tube, and centrifuge again at 2000×g for 10 min to clarify. The final supernatant was analyzed with an UV spectrophotometer at 286 nm to quantitate free TPNa and calculate the binding. Approximately 100% of TPNa in the binding suspension was attached to calcium phosphate particles. • iv. The pellet of TPNa calcium phosphate complex was re-suspended in 60% ethanol to release the bound TPNa. • v. The release suspension in 60% ethanol was centrifuged at 2000×g for 10 min. The supernatant was analyzed with an UV spectrophotometer at 286 nm to quantitate free TPNa released.

Compound: Lysozyme: Lysozyme, MP biomedicals LLC
depth of detection ([1]; lysozyme-calcium phosphate particle formulation): 6 tape strips | lysozyme release from calcium phosphate particles ([2]; pH 4.8 (0.5 M sodium acetate)): most of the lysozyme releasing within the first hour | lysozyme release from calcium phosphate particles ([2]; pH 7.0 (10 mM Bis Tris)): no lysozyme is observed released | Lysozyme bound to calcium phosphate particles [3]: 6.8 mg/g

Salicylic acid Bound ([4]; pH 5.99): 0 µg/g | Salicylic acid Bound ([4]; pH 7.07): 23.8 µg/g | Salicylic acid Bound ([4]; pH 7.47): 97.5 µg/g | Salicylic acid Bound ([4]; pH 8.34): 660.4 µg/g | Salicylic acid Bound ([4]; pH 11.36): 1141.14 µg/g | Optimum pH ([5]; Loading Solvent Ethanol/water): 4.03-7.90
Compound: O=C(O)c1ccccc1O [Salicylic acid]

delivery depth in stratum corneum ([1]; STAY C50-calcium phosphate particle formulation): 10th layer of stratum corneum
Compound: O=C1O[C@H]([C@@H](O)CO)C([O-])=C1OP(=O)([O-])[O-].[Na+].[Na+].[Na+] [STAY-C50, Sodium Ascorbyl Phosphate]

release rate of the active versus aqueous solution ([6]; calcium phosphate particle complex): slower release of the active | penetration through skin (riboflavin metabolite in receptor fluid) ([6]; from aqueous solution (PBS)): penetrated through skin | penetration through skin (riboflavin metabolite in receptor fluid) ([6]; from calcium phosphate particle complex): penetrated through skin
Compound: Riboflavin monophosphate

Optimum pH ([5]; Loading Solvent Ethanol/water): 10
Compound: Oc1ccc(C=Cc2cc(O)cc(O)c2)cc1 [Resveratrol]

activity of ascorbic acid, 2 um ([7]; 0 hrs): 100% | activity of ascorbic acid, 2 um ([7]; 0.5 hrs): 85% | activity of ascorbic acid, 2 um ([7]; 2 hrs): 59% | activity of ascorbic acid, 2 um ([7]; 3 hrs): 48% | activity of ascorbic acid, 2 um ([7]; 5 hrs): 35% | activity of ascorbic acid, Control ([7]; 0 hrs): 100% | activity of ascorbic acid, Control ([7]; 0.5 hrs): 36% | activity of ascorbic acid, Control ([7]; 2 hrs): 18% | activity of ascorbic acid, Control ([7]; 5 hrs): 0% | Optimum pH ([5]; Loading Solvent Water): >8.12
Compound: O=C1O[C@H]([C@@H](O)CO)C(O)=C1O [Ascorbic acid]

Argireline bound ([8]; No pretreatment, pH 7.39): 0.09 mg/g | Argireline bound ([8]; No pretreatment, pH 10.46): 0.05 mg/g | Argireline bound ([8]; SLS treated particles, pH 7.85): 1.19 mg/g | Argireline bound ([8]; SLS treated particles, pH 10.10): 2.15 mg/g | Optimum pH ([5]; Loading Solvent Water): 6.7-7.8 and 7.8 and 6.4
Compound: Acetyl Hexapeptide-8 [Argireline]

Binding capacity of Adapalene to calcium phosphate particles ([9]; in DMSO): 12.55 mg/g | Binding capacity of Adapalene to calcium phosphate particles ([9]; in ethanol): 0.78 mg/g | saturated solution concentration ([10]; in DMSO): 20.65 mg/mL | saturated solution concentration ([10]; in ethanol): 0.087 mg/mL | Optimum pH ([5]; Loading Solvent DMSO): 7 | Optimum pH ([5]; Loading Solvent Ethanol): 11 and 7
Compound: COc1ccc(-c2ccc3cc(C(=O)O)ccc3c2)cc1C12CC3CC(CC(C3)C1)C2 [Adapalene]

Optimum pH ([5]; Loading Solvent Water): 7
Compound: Cc1c(C)c2c(c(C)c1OP(=O)([O-])OC1=C(O)[C@@H]([C@@H](O)CO)OC1=O)CC[C@@](C)(CCC[C@H](C)CCC[C@H](C)CCCC(C)C)O2.[K+] (racemic) [Sepivital, dl-a-tocopheryl 2 L ascorbyl phosphate]

Optimum pH ([5]; Loading Solvent Water): 7
Compound: Hyaluronic acid Sodium salt

TPNa in the binding suspension attached to calcium phosphate particles ([11]; 0.5 mg/ml TPNa in water): Approximately 100% | integrity of released TPNa (UV spectroscopy) ([11]; released in 60% ethanol): identical to an unbound control
Compound: Cc1c(C)c2c(c(C)c1OP(=O)([O-])[O-])CCC(C)(CCCC(C)CCCC(C)CCCC(C)C)O2.[Na+].[Na+] (stereo not shown) [TPNa, Sodium Tocopheryl Phosphate]
